{"source": "PubChem BioAssay AID743394", "about": "(Broad Institute, 2014)", "note": "Calls of active or inactive are those of the source.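 How the source made its calls: active means 40% activation versus positive control reached by fitted dose-response curve at or below highest valid tested dose; inconclusive means poor fit quality, or flat fit with activation between 30% and 70%; inactive means the rest.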", "data": [{"assay": "inactive X chromosome reactivation in XiGFP fibroblasts, dose response, imaging, 68-5-11 mouse fibroblasts, GFP, cherry-pick (AID 743394);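 further: sensitizer 5-aza-dC present in the wells at 0.5 mM final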", "conditions": "68-5-11 mouse fibroblast XiGFP reporter, % GFP-positive imaging, 3 d; at 19.5 µM (top of the series)", "values": [{"smiles": "Cc1cc(=O)oc2cc3c(cc12)CCCN3", "activation": "0.76% (inactive)"}]}, {"assay": "inactive X chromosome reactivation in XiGFP fibroblasts, dose response, imaging, 68-5-11 mouse fibroblasts, GFP, cherry-pick (AID 743394)", "conditions": "68-5-11 mouse fibroblast XiGFP reporter, % GFP-positive imaging, 3 d; at 19.5 µM (top of the series); cells co-treated with 5-aza-dC sensitizer; scaled: neutral wells 0, ellipticine wells 100", "values": [{"smiles": "CN1CCN(S(=O)(=O)c2ccc(C#N)cc2)C(c2ccccc2)C1", "note": "(centres undefined)", "activation": "0.227% (inactive)"}, {"smiles": "O=CNc1ccc2c(c1)Cc1cc([N+](=O)[O-])ccc1-2", "activation": "0.191% (inactive)"}, {"smiles": "COC(=O)c1cnn(-c2ccccc2)c1N", "activation": "0.12% (inactive)"}, {"smiles": "COc1ccccc1/C=C/C(=O)OCC(=O)NC(=O)NC1CCCC1", "activation": "-0.012% (inactive)"}, {"smiles": "O=C(C[C@H]1CC[C@H]2[C@@H](COC[C@@H](O)CN2C(=O)Nc2ccccc2)O1)NCCc1ccncc1", "activation": "0.207% (inactive)"}, {"smiles": "CC(=O)N/C(N)=N/c1nc(=O)c2ccccc2s1", "activation": "-0.044% (inactive)"}, {"smiles": "COc1ccc2c3c(n(C)c2c1)[C@H](CO)N(Cc1ccccc1F)CC31CCN(CC2CC2)CC1", "activation": "0.046% (inactive)"}, {"smiles": "O=C(OCc1cc(=O)n2c(n1)sc1ccccc12)c1ccc(O)cc1O", "activation": "0.076% (inactive)"}, {"smiles": "COc1ccccc1N(C)c1cc2c(c3c1ccn3C)C1CCC2C1", "note": "(centres undefined)", "activation": "0.146% (inactive)"}, {"smiles": "COc1ccc2nc(SCC(=O)Nc3ccccc3OC)[nH]c2c1", "activation": "-0.024% (inactive)"}, {"smiles": "CC(C)CC#Cc1ccc([C@@H]2[C@@H](CO)N3C(=O)CN(C(=O)c4cccc(F)c4)C[C@H]23)cc1", "activation": "0.027% (inactive)"}, {"smiles": "CC(C)C(NC(=O)c1ccc(F)cc1)C(=O)NCC1CCCO1", "note": "(centres undefined)", "activation": "0.21% (inactive)"}, {"smiles": "CC1C=NC(S(=O)(=O)N2CC[C@@H]3[C@@H](CO)N(C)c4ccc(-c5ccccc5)cc4[C@@H]32)=N1", "note": "(some centres undefined)", "activation": "0.053% (inactive)"}, {"smiles": "Cc1onc(-c2c(Cl)cccc2Cl)c1-c1nc2cc(Cl)ccc2c(=O)o1", "activation": "-0.032% (inactive)"}, {"smiles": "CC(C)c1ccc(N2C(=O)/C(=C/N(C)C)SC2=S)cc1", "activation": "0.088% (inactive)"}, {"smiles": "Nc1nc(C2CCOCC2)cs1", "activation": "-0.032% (inactive)"}, {"smiles": "Cc1cc(NC(=O)c2c(-c3c(Cl)cccc3Cl)noc2C)n(C)n1", "activation": "-0.127% (inactive)"}, {"smiles": "C[C@H]1CCCCO[C@@H](CN(C)C(=O)Nc2ccc(C(F)(F)F)cc2)[C@@H](C)CN([C@@H](C)CO)C(=O)c2cc(NC(=O)CCC(F)(F)F)ccc2O1", "activation": "0.048% (inactive)"}, {"smiles": "CC1=NN(c2ccc(C)c(C)c2)C(=O)/C1=C\\C=C\\c1ccc([N+](=O)[O-])o1", "activation": "-0.033% (inactive)"}, {"smiles": "CCOC(=O)[C@]12CCC=C1N(Cc1ccccc1)C(=O)[C@H](CC(=O)N1CCSCC1)C2", "activation": "-0.008% (inactive)"}, {"smiles": "CCCCC(=O)N(C)c1c(CC)nc2c(OCC(=O)c3ccc(F)cc3)cccn12", "activation": "-0.039% (inactive)"}, {"smiles": "Cc1cc2c(NC(=O)Nc3ccc(C(C)(C)C)cc3)cccc2nn1", "activation": "0.068% (inactive)"}, {"smiles": "Oc1ccc(Cl)cc1C=Nc1ccc2c3c(cccc13)CC2", "activation": "0.039% (inactive)"}, {"smiles": "C=CC[C@@H](CC(=O)N(CCO)Cc1ccccc1)C(=O)NCCOC(=O)[C@@H](CC=C)Cc1ccc(F)cc1", "activation": "-0.009% (inactive)"}, {"smiles": "CC(=NNC(=S)Nc1cccc(Cl)c1)c1ccccn1", "activation": "-0.035% (inactive)"}, {"smiles": "CN(Cc1cccs1)C(=O)Cc1c[nH]c2ccccc12", "activation": "-0.024% (inactive)"}, {"smiles": "COc1ccc(NS(=O)(=O)c2ccc(NC(C)=O)cc2)nn1", "activation": "0.042% (inactive)"}, {"smiles": "CCOC(=O)c1ccccc1NC(=O)COC(=O)C1CCN(S(=O)(=O)c2ccccc2C(=O)OC)CC1", "activation": "1.06% (inactive)"}, {"smiles": "O=C(Nc1cccc(S(=O)(=O)NC2=NCCC2)c1)C1CC(=O)N(c2ccc3c(c2)OCCO3)C1", "note": "(centres undefined)", "activation": "0.339% (inactive)"}, {"smiles": "Cc1nn2c(NCCCN(C)C)c3c(nc2c1-c1ccccc1)CCCC3", "activation": "0.079% (inactive)"}, {"smiles": "C/C(=N\\NC(=O)c1ccccc1Cl)c1ccccn1", "activation": "3.5% (inactive)"}, {"smiles": "COc1ccc(NC(=O)C(=O)NCCC2CCCCN2S(=O)(=O)c2cccs2)cc1", "note": "(centres undefined)", "activation": "6.11% (inactive)"}, {"smiles": "C/C(CC(=O)Nc1ccc(C)c(Cl)c1)=N\\NC(=O)Cc1ccccc1", "activation": "-0.06% (inactive)"}, {"smiles": "CCOC(=O)C1CCN(c2c(NCc3ccc(C(=O)NC4CCCC4)cc3)c(=O)c2=O)CC1", "activation": "-0.034% (inactive)"}, {"smiles": "Cc1ccc(-c2nc3ccc(Br)cn3c2Cc2ccccc2C(F)(F)F)cc1", "activation": "0.06% (inactive)"}, {"smiles": "CCOC(=O)c1ccc(NC(=O)c2ccnn2C)cc1", "activation": "-0.044% (inactive)"}, {"smiles": "CC1CC(C)CN(C(=O)C(C)N2CCN(S(=O)(=O)c3ccccc3F)CC2)C1", "note": "(centres undefined)", "activation": "0.412% (inactive)"}, {"smiles": "COc1cc(/C=C2\\SC(=S)N(N3CCOCC3)C2=O)cc(OC)c1OC", "activation": "0.067% (inactive)"}, {"smiles": "O=c1[nH]c(=O)n([C@H]2C[C@H](O)[C@@H](CO)O2)cc1C(F)(F)F", "activation": "-0.032% (inactive)"}, {"smiles": "Cc1ccc(NC(=O)c2ncn(CCCNCCCN(C)C)n2)cc1C", "activation": "0.041% (inactive)"}, {"smiles": "O=C(COC(=O)COc1cccc(C(F)(F)F)c1)NC1CCS(=O)(=O)C1", "note": "(centres undefined)", "activation": "-0.034% (inactive)"}, {"smiles": "COc1cccc(NC(=O)N(C)C[C@@H]2Oc3cc(Br)ccc3S(=O)(=O)N([C@@H](C)CO)C[C@H]2C)c1", "activation": "-0.016% (inactive)"}, {"smiles": "Nc1ccc(-c2nc3ccccc3[nH]2)cc1", "activation": "-0.039% (inactive)"}, {"smiles": "Brc1ccc(-c2cn3ccccc3n2)cc1", "activation": "-0.039% (inactive)"}, {"smiles": "COc1cccc(-c2ccc(C3[C@@H]4CN(C(=O)C5CCCCC5)C[C@H]3N4)cc2)c1", "note": "(some centres undefined)", "activation": "2.76% (inactive)"}, {"smiles": "CC(=O)Nc1sc(N/N=C/c2ccc(N(C)C)cc2)nc1-c1ccc(C)cc1", "activation": "0.052% (inactive)"}, {"smiles": "CC(C)(C)NC(=O)C(c1c[nH]c2ccccc12)N(C(=O)Cn1nnc(-c2ccc(Cl)cc2)n1)c1ccccc1F", "note": "(centres undefined)", "activation": "0.104% (inactive)"}, {"smiles": "Cc1ccc(S(=O)(=O)N(C)C[C@H]2OCCCC[C@@H](C)Oc3ccc(NC(=O)Nc4c(C)noc4C)cc3C(=O)N([C@H](C)CO)C[C@@H]2C)cc1", "activation": "-0.011% (inactive)"}, {"smiles": "COc1ccc(N2CCN(C(=O)c3cc4c(s3)-c3ccccc3OC4)CC2)cc1", "activation": "0.457% (inactive)"}, {"smiles": "CC1Oc2ccccc2C=C1/C=N\\NC(=O)c1cccnc1", "note": "(centres undefined)", "activation": "0.047% (inactive)"}, {"smiles": "COc1ccc(S(=O)(=O)N(C)C[C@H]2OCCCC[C@@H](C)Oc3ccc(NC(=O)NC(C)C)cc3C(=O)N([C@@H](C)CO)C[C@H]2C)cc1", "activation": "-0.013% (inactive)"}, {"smiles": "COc1ccccc1C#Cc1ccc2c(c1)O[C@H](CN(C)Cc1cncnc1)[C@@H](C)CN([C@H](C)CO)S2(=O)=O", "activation": "0.045% (inactive)"}, {"smiles": "N/C(=N\\OC(=O)C12CC3CC(CC(C3)C1)C2)c1ccncc1", "activation": "0.008% (inactive)"}, {"smiles": "CCN1CCN(c2cc(C)c3cc(NC(=O)c4cccs4)ccc3n2)CC1", "activation": "-0.032% (inactive)"}, {"smiles": "COc1ccc(/C=C\\c2onc(C)c2S(=O)(=O)N2CCC(C(=O)NCc3ccco3)CC2)cc1", "activation": "0.355% (inactive)"}, {"smiles": "COc1ccc(C(=O)CN2Cc3ccccc3C2=N)cc1", "activation": "0.166% (inactive)"}, {"smiles": "c1ccc(CCNc2nc(-c3ccccn3)nc3ccccc23)cc1", "activation": "-0.035% (inactive)"}, {"smiles": "O=C(CNC(=O)c1ccccc1F)OCc1nc2ccccc2s1", "activation": "-0.127% (inactive)"}, {"smiles": "CC(C)n1c(NCc2cc(Cl)ccc2O)nc2ccccc21", "activation": "-0.029% (inactive)"}, {"smiles": "O=C(O)c1ccccc1NS(=O)(=O)c1ccc(N/N=C/c2cccc(O)c2O)c([N+](=O)[O-])c1", "activation": "-0.035% (inactive)"}, {"smiles": "O=C(N/N=C/c1ccc(O)c2ncccc12)c1cccc(Br)c1", "activation": "-0.037% (inactive)"}, {"smiles": "CN(Cc1nccn1C)C(=O)CC1C(=O)NCCN1CC(c1ccccc1)c1ccccc1", "note": "(centres undefined)", "activation": "0.001% (inactive)"}, {"smiles": "CN(C)C=NC(=O)c1cc(C(=O)c2ccc(Cl)cc2Cl)c[nH]1", "activation": "-0.032% (inactive)"}]}]}
